What follows are molecules tested against human PDHK2 (hPDHK2) (Homo sapiens (Human), UniProt Q15119) (assay: Inhibitory action of PDHK activity in vitro (kinase reaction, residual PDH activity measured)). Details: PDHK inhibitory activity, class symbol of IC50.
Type: biochemical

Structure (SMILES) | IC50
Cn1cc(-c2cc(C(=O)NCCCCO)cc3c2-c2ccccc2C3(O)C(F)(F)F)cn1 (centres unmarked) [compound 345] | 100 to 1000 nM
CN(CCO)C(=O)c1cc(-c2cnn(C)c2)c2c(c1)C(O)(C(F)(F)F)c1ccccc1-2 (centres unmarked) [compound 346] | 100 to 1000 nM
CCn1cc(-c2cccc3c2-c2ccccc2C3(O)C(F)(F)F)cn1 (centres unmarked) [compound 347] | < 100 nM
CN(CCOc1ccc2c(c1)C(O)(C(F)(F)F)c1ccccc1-2)C(=O)CO (centres unmarked) [compound 348] | 100 to 1000 nM
NC(=O)COC1CN(C(=O)c2cc(Cl)c3c(c2)C(O)(C(F)(F)F)c2ccccc2-3)C1 (centres unmarked) [compound 349] | 100 to 1000 nM
Cc1cc(C(=O)N2CC(O)C2)cc2c1-c1ccccc1C2(O)C(F)(F)F (centres unmarked) [compound 350] | 100 to 1000 nM
Cc1cc(C(=O)N2CC(CO)C2)cc2c1-c1ccccc1C2(O)C(F)(F)F (centres unmarked) [compound 351] | 100 to 1000 nM
Cc1cc(C(=O)N2CC(OCC(N)=O)C2)cc2c1-c1ccccc1C2(O)C(F)(F)F (centres unmarked) [compound 352] | 100 to 1000 nM
COC(=O)Cc1ccc2c(c1)C(O)(C(F)(F)F)c1ccccc1-2 (centres unmarked) [compound 353] | > 1000 nM
CN(C)C(=O)c1cc(-c2cnn(C)c2)c2c(c1)C(O)(C(F)(F)F)c1ccccc1-2 (centres unmarked) [compound 354] | < 100 nM
Cn1cc(-c2cc(C(=O)N3CCC3)cc3c2-c2ccccc2C3(O)C(F)(F)F)cn1 (centres unmarked) [compound 355] | < 100 nM
Cn1cc(-c2cc(C(=O)N3CCCC3)cc3c2-c2ccccc2C3(O)C(F)(F)F)cn1 (centres unmarked) [compound 356] | < 100 nM
COC(=O)COc1ccc2c(c1)C(O)(C(F)(F)F)c1ccccc1-2 (centres unmarked) [compound 357] | > 1000 nM
Cn1cc(-c2cc(OCC(=O)O)cc3c2-c2ccccc2C3(O)C(F)(F)F)cn1 (centres unmarked) [compound 358] | < 100 nM
O=C1CCCN1CCOc1ccc2c(c1)C(O)(C(F)(F)F)c1ccccc1-2 (centres unmarked) [compound 359] | 100 to 1000 nM
O=C(COc1ccc2c(c1)C(O)(C(F)(F)F)c1ccccc1-2)N1CCCC1 (centres unmarked) [compound 360] | 100 to 1000 nM
O=C(COc1ccc2c(c1)C(O)(C(F)(F)F)c1ccccc1-2)N1CCCCC1 (centres unmarked) [compound 361] | 100 to 1000 nM

Structure (SMILES) | IC50
O=C(COc1ccc2c(c1)C(O)(C(F)(F)F)c1ccccc1-2)N1CCOCC1 (centres unmarked) [compound 362] | > 1000 nM
NC(=O)COc1cc(-c2cncnc2)c2c(c1)C(O)(C(F)(F)F)c1ccccc1-2 (centres unmarked) [compound 363] | < 100 nM
COC(=O)c1cc(-c2cncnc2)c2c(c1)C(O)(C(F)(F)F)c1ccccc1-2 (centres unmarked) [compound 364] | 100 to 1000 nM
O=C(COc1ccc2c(c1)C(O)(C(F)(F)F)c1ccccc1-2)NCCO (centres unmarked) [compound 365] | > 1000 nM
CN(CCO)C(=O)COc1ccc2c(c1)C(O)(C(F)(F)F)c1ccccc1-2 (centres unmarked) [compound 366] | > 1000 nM
CN(C)C(=O)c1cc(-c2cncnc2)c2c(c1)C(O)(C(F)(F)F)c1ccccc1-2 (centres unmarked) [compound 368] | 100 to 1000 nM
O=C(c1cc(-c2cncnc2)c2c(c1)C(O)(C(F)(F)F)c1ccccc1-2)N1CCC1 (centres unmarked) [compound 369] | < 100 nM
O=C(c1cc(-c2cncnc2)c2c(c1)C(O)(C(F)(F)F)c1ccccc1-2)N1CCCC1 (centres unmarked) [compound 370] | 100 to 1000 nM
O=C(NCCCCO)c1cc(-c2cncnc2)c2c(c1)C(O)(C(F)(F)F)c1ccccc1-2 (centres unmarked) [compound 371] | 100 to 1000 nM
CN(CCO)C(=O)c1cc(-c2cncnc2)c2c(c1)C(O)(C(F)(F)F)c1ccccc1-2 (centres unmarked) [compound 372] | 100 to 1000 nM
Cn1cc(-c2cc(C(=O)N3CC(O)C3)cc3c2-c2ccccc2C3(O)C(F)(F)F)cn1 (centres unmarked) [compound 373] | < 100 nM
Cn1cc(-c2cc(C(=O)N3CC(CO)C3)cc3c2-c2ccccc2C3(O)C(F)(F)F)cn1 (centres unmarked) [compound 374] | < 100 nM
Cn1cc(-c2cc(C(=O)N3CC(OCCO)C3)cc3c2-c2ccccc2C3(O)C(F)(F)F)cn1 (centres unmarked) [compound 375] | < 100 nM
Cn1cc(-c2cc(C(=O)N3CCC(O)C3)cc3c2-c2ccccc2C3(O)C(F)(F)F)cn1 (centres unmarked) [compound 376] | < 100 nM
Cn1cc(-c2ccc3c(c2)C(O)(C(F)(F)F)c2ccccc2-3)cn1 (centres unmarked) [compound 377] | 100 to 1000 nM
COc1cnc2c(c1)C(O)(C(F)(F)F)c1ccccc1-2 (centres unmarked) [compound 378] | 100 to 1000 nM
CC(=O)N(CCO)CCOc1ccc2c(c1)C(O)(C(F)(F)F)c1ccccc1-2 (centres unmarked) [compound 379] | 100 to 1000 nM

Same assay, conditions: read-out: PDHK inhibitory activity IC50

Structure (SMILES) | IC50
Cn1cc(-c2cc(C(=O)NCCCCO)cc3c2-c2ccccc2C3(O)C(F)(F)F)cn1 (centres unmarked) [compound 345] | 121 nM
CN(CCO)C(=O)c1cc(-c2cnn(C)c2)c2c(c1)C(O)(C(F)(F)F)c1ccccc1-2 (centres unmarked) [compound 346] | 200 nM
CCn1cc(-c2cccc3c2-c2ccccc2C3(O)C(F)(F)F)cn1 (centres unmarked) [compound 347] | 88 nM
CN(CCOc1ccc2c(c1)C(O)(C(F)(F)F)c1ccccc1-2)C(=O)CO (centres unmarked) [compound 348] | 634 nM
NC(=O)COC1CN(C(=O)c2cc(Cl)c3c(c2)C(O)(C(F)(F)F)c2ccccc2-3)C1 (centres unmarked) [compound 349] | 126 nM
Cc1cc(C(=O)N2CC(O)C2)cc2c1-c1ccccc1C2(O)C(F)(F)F (centres unmarked) [compound 350] | 152 nM
Cc1cc(C(=O)N2CC(CO)C2)cc2c1-c1ccccc1C2(O)C(F)(F)F (centres unmarked) [compound 351] | 168 nM
Cc1cc(C(=O)N2CC(OCC(N)=O)C2)cc2c1-c1ccccc1C2(O)C(F)(F)F (centres unmarked) [compound 352] | 109 nM
COC(=O)Cc1ccc2c(c1)C(O)(C(F)(F)F)c1ccccc1-2 (centres unmarked) [compound 353] | 7400 nM
CN(C)C(=O)c1cc(-c2cnn(C)c2)c2c(c1)C(O)(C(F)(F)F)c1ccccc1-2 (centres unmarked) [compound 354] | 71 nM
Cn1cc(-c2cc(C(=O)N3CCC3)cc3c2-c2ccccc2C3(O)C(F)(F)F)cn1 (centres unmarked) [compound 355] | 40 nM
Cn1cc(-c2cc(C(=O)N3CCCC3)cc3c2-c2ccccc2C3(O)C(F)(F)F)cn1 (centres unmarked) [compound 356] | 53 nM
COC(=O)COc1ccc2c(c1)C(O)(C(F)(F)F)c1ccccc1-2 (centres unmarked) [compound 357] | 1940 nM
Cn1cc(-c2cc(OCC(=O)O)cc3c2-c2ccccc2C3(O)C(F)(F)F)cn1 (centres unmarked) [compound 358] | 34 nM
O=C1CCCN1CCOc1ccc2c(c1)C(O)(C(F)(F)F)c1ccccc1-2 (centres unmarked) [compound 359] | 187 nM
O=C(COc1ccc2c(c1)C(O)(C(F)(F)F)c1ccccc1-2)N1CCCC1 (centres unmarked) [compound 360] | 548 nM
O=C(COc1ccc2c(c1)C(O)(C(F)(F)F)c1ccccc1-2)N1CCCCC1 (centres unmarked) [compound 361] | 436 nM

Structure (SMILES) | IC50
O=C(COc1ccc2c(c1)C(O)(C(F)(F)F)c1ccccc1-2)N1CCOCC1 (centres unmarked) [compound 362] | 1080 nM
NC(=O)COc1cc(-c2cncnc2)c2c(c1)C(O)(C(F)(F)F)c1ccccc1-2 (centres unmarked) [compound 363] | 47 nM
COC(=O)c1cc(-c2cncnc2)c2c(c1)C(O)(C(F)(F)F)c1ccccc1-2 (centres unmarked) [compound 364] | 178 nM
O=C(COc1ccc2c(c1)C(O)(C(F)(F)F)c1ccccc1-2)NCCO (centres unmarked) [compound 365] | 1330 nM
CN(CCO)C(=O)COc1ccc2c(c1)C(O)(C(F)(F)F)c1ccccc1-2 (centres unmarked) [compound 366] | 2170 nM
CN(C)C(=O)c1cc(-c2cncnc2)c2c(c1)C(O)(C(F)(F)F)c1ccccc1-2 (centres unmarked) [compound 368] | 180 nM
O=C(c1cc(-c2cncnc2)c2c(c1)C(O)(C(F)(F)F)c1ccccc1-2)N1CCC1 (centres unmarked) [compound 369] | 81 nM
O=C(c1cc(-c2cncnc2)c2c(c1)C(O)(C(F)(F)F)c1ccccc1-2)N1CCCC1 (centres unmarked) [compound 370] | 114 nM
O=C(NCCCCO)c1cc(-c2cncnc2)c2c(c1)C(O)(C(F)(F)F)c1ccccc1-2 (centres unmarked) [compound 371] | 617 nM
CN(CCO)C(=O)c1cc(-c2cncnc2)c2c(c1)C(O)(C(F)(F)F)c1ccccc1-2 (centres unmarked) [compound 372] | 564 nM
Cn1cc(-c2cc(C(=O)N3CC(O)C3)cc3c2-c2ccccc2C3(O)C(F)(F)F)cn1 (centres unmarked) [compound 373] | 49 nM
Cn1cc(-c2cc(C(=O)N3CC(CO)C3)cc3c2-c2ccccc2C3(O)C(F)(F)F)cn1 (centres unmarked) [compound 374] | 49 nM
Cn1cc(-c2cc(C(=O)N3CC(OCCO)C3)cc3c2-c2ccccc2C3(O)C(F)(F)F)cn1 (centres unmarked) [compound 375] | 50 nM
Cn1cc(-c2cc(C(=O)N3CCC(O)C3)cc3c2-c2ccccc2C3(O)C(F)(F)F)cn1 (centres unmarked) [compound 376] | 85 nM
Cn1cc(-c2ccc3c(c2)C(O)(C(F)(F)F)c2ccccc2-3)cn1 (centres unmarked) [compound 377] | 189 nM
COc1cnc2c(c1)C(O)(C(F)(F)F)c1ccccc1-2 (centres unmarked) [compound 378] | 703 nM
CC(=O)N(CCO)CCOc1ccc2c(c1)C(O)(C(F)(F)F)c1ccccc1-2 (centres unmarked) [compound 379] | 351 nM
